From patent publication EP0234480A2, “1, 3-diketone derivatives and their use” (NIHON NOHYAKU CO., LTD., priority 1986, dated 1987)

Key:
[1] = test system: hepatic disorder caused by carbon tetrachloride; assay: Effect of suppressing hepatic disorder caused by carbon tetrachloride; format: in vivo, mice; details: mean of 5; for Liver disorder index: mice (dd-strain), 250 mg/kg oral in olive oil, 6 h before carbon tetrachloride 0.05 ml/kg oral, visual observation 24 h after, scale 0 healthy, 2 slightly affected, 4 evident disorder, 6 serious disorder; for p-GPT (K.U.): plasma glutamic pyruvic transaminase activity, Reitman-Frankel, mice, 250 mg/kg oral, 6 h before carbon tetrachloride 0.05 ml/kg, 24 h after, values of 2,100 units or higher counted as 2,100
Description: Six hours thereafter, carbon tetrachloride was orally administered in a proportion of 0.05 ml/kg. The animals were sacrificed 24 hours after the administration of carbon tetrachloride, and the extent of liver disorder was examined by visual observation. On the other hand, blood was collected from the animal at the time of the sacrifice, and centrifuged to obtain plasma. The plasma glutamic piruvic transaminase (GPT) activity was determined according to the method of Reitman-Frankel. The activity was expressed in terms of Karmen Units (K.U.). The conditions of the liver were expressed in terms of liver disorder index as follows. […] Mice were used in groups of five and the results of test were represented by the mean value. When the GPT activity was 2,100 units or higher, […], and the activity was calculated as 2,100 units for reasons of convenience.

[2] = Acute oral toxicity (LD50); details: in vivo, male rat
Description: For example, LD50 value (acute oral toxicity to male rat) of the compound No. 8 is more than 1,000 mg/kg.

| Compound | Liver disorder index [1] | p-GPT (K.U.) [1] [K.U.] | LD50 [2] [mg/kg] |
| --- | --- | --- | --- |
| CC(=O)C(C(=O)c1ccccc1)=C1SCS1 [Compound No. 1] | 0.7 | 23 | – |
| CC(=O)C(C(=O)c1cccc(C)c1)=C1SCS1 [Compound No. 2] | 0.8 | 22 | – |
| COc1ccccc1C(=O)C(C(C)=O)=C1SCS1 [Compound No. 5, 1-(1,3-dithietan-2-ylidene)-1-(2-methoxybenzoyl)acetone] | 1.0 | 12 | – |
| COc1ccc(C(=O)C(C(C)=O)=C2SCS2)c(OC)c1 [Compound No. 8] | 0.6 | 54 | > 1000 |
| CC(=O)C(C(=O)c1ccc(Cl)cc1Cl)=C1SCS1 [Compound No. 15] | 0.5 | 203 | – |
| CC(=O)C(C(=O)c1ccc(C)cc1)=C1SCS1 [compound 3] | 1.4 | 14 | – |
| CC(=O)C(C(=O)c1ccc(C)c(C)c1)=C1SCS1 [compound 4, 1-(3,4-dimethylbenzoyl)-1-(1,3-dithietan-2-ylidene)acetone] | 0.6 | 23 | – |
| COc1cccc(C(=O)C(C(C)=O)=C2SCS2)c1 [compound 6] | 2.0 | 16 | – |
| COc1ccc(C(=O)C(C(C)=O)=C2SCS2)cc1 [compound 7] | 1.2 | 19 | – |
| COc1ccc(C(=O)C(C(C)=O)=C2SCS2)cc1OC [compound 9] | 0.6 | 11 | – |
| COc1cc(C(=O)C(C(C)=O)=C2SCS2)cc(OC)c1OC [compound 10] | 1.8 | 413 | – |
| CC(=O)C(C(=O)c1ccc(OCc2ccccc2)cc1)=C1SCS1 [compound 11] | 1.6 | 884 | – |
| CC(=O)C(C(=O)c1ccc(OCc2ccc(Cl)cc2)cc1)=C1SCS1 [compound 12] | 2.8 | 1739 | – |
| CC(=O)C(C(=O)c1ccccc1Cl)=C1SCS1 [compound 13] | 0.8 | 13 | – |
| CC(=O)C(C(=O)c1ccc(Cl)cc1)=C1SCS1 [compound 14] | 0.2 | 73 | – |
| CC(=O)C(C(=O)c1ccc(Br)cc1)=C1SCS1 [compound 16, 1-(4-bromobenzoyl)-1-(1,3-dithietan-2-ylidene)acetone] | 0 | 15.8 | – |
| CC(=O)C(C(=O)c1ccc(F)cc1)=C1SCS1 [compound 17] | 0.4 | 15 | – |
| CC(=O)C(C(C)=O)=C1SCS1 [compound 18, 1-acetyl-1-(1,3-dithietan-2-ylidene) acetone] | 1.6 | 1142 | – |
| CC(=O)C(C(=O)c1cccs1)=C1SCS1 [compound 19, 1-(1,3-dithietan-2-ylidene)-1-(2-thiophene-carbonyl)acetone] | 0.2 | 16 | – |
| CC(=O)C(C(=O)c1ccco1)=C1SCS1 [compound 20] | 0 | 22 | – |
| CC(=O)C(C(=O)c1cccnc1)=C1SCS1 [compound 21] | 0.2 | 14 | – |
| O=C(C(C(=O)c1ccccc1)=C1SCS1)c1ccccc1 [compound 22] | 0.5 | 71 | – |
| CC(=O)C(C(=O)c1ccccc1)=C1SC(c2ccccc2)S1 (stereo not shown) [compound 23] | 6.6 | 1668 | – |
| COc1cccc(C(=O)C(C(C)=O)=C2SC(c3ccccc3)S2)c1 (stereo not shown) [compound 24] | 3.8 | 1654 | – |
| CC(=O)C(C(C)=O)=C1SC(C)S1 (stereo not shown) [compound 25] | 1.2 | 205 | – |
| CC(C)C(=O)C(C(=O)c1ccccc1Cl)=C1SCS1 [compound 28] | 1.0 | 42 | – |
| CC(=O)C(C(=O)c1ccc(OC(C)C)cc1)=C1SCS1 [compound 29] | 3.4 | 233 | – |
| Cc1cccc(C(=O)C(C(=O)c2ccccc2)=C2SCS2)c1 [compound 30] | 0.6 | 19 | – |
| O=C(C(C(=O)c1ccc(F)cc1)=C1SCS1)c1ccccc1 [compound 31, 1-(1,3-dithietan-2-ylidene)-1-(4-fluorobenzoyl)acetophenone] | 0.4 | 16 | – |
| CC(=O)C(C(=O)c1ccc2ccccc2c1)=C1SCS1 [compound 32] | 0.8 | 18 | – |
